Experimental data reported in publication PMC6609541, “Enterohepatic circulation of glucuronide metabolites of drugs in dog” (Pharmacology Research & Perspectives, 2019).
Where two headings read alike, the source gives them in different places.

Tests used:
UGT (glucuronidation) [1] = assay: Kidney microsomal glucuronidation assay (human); format: in vitro ADME; settings: kidney microsomes, pH 7.5, human, with 2% BSA
Description: (§1) Intrinsic clearance of the compounds by glucuronidation was conducted in human and dog liver and kidney microsomes. Microsomes (0.5 mg/mL) with or without 2% bovine serum albumin (BSA), 100 mmol/L Tris‐HCl buffer, (pH 7.5), containing 5 mmol/L MgCl2 and 50 µg of alamethicin were mixed and placed on ice for 15 minutes. Canagliflozin or DPTQ (2 µmol/L final concentration) were added, and the mixture was pre‐incubated at 37°C for 3 minutes. A 0‐minute time point was obtained and the reaction initiated by the addition of UDPGA (5 mmol/L final concentration). Aliquots of the incubation (50 µL) were removed at various time points 5, 15, 30, 60 and 120 minutes, and added to the quench solution (1:1 acetonitrile:water). The zero minute time points were also quenched in the same manner. Substrate concentrations were then measured by LC/MS and the intrinsic clearance values (μL/min/mg protein) were calculated using following equation. CLint=-kdep×incubation volume/mg protein
(§2) In which the depletion rate constant (k dep) is the slope determined using linear regression from the log transformed % remaining on the y‐axis vs time on the x‐axis (min^− ^1). […] To determine the unbound intrinsic clearances the microsomal Clint values were divided by the respective microsomal fraction unbound values. The microsomal unbound fraction both with and without 2% BSA was determined as described previously.15

[2] = Hepatocyte intrinsic clearance with and without ABT (human); format: in vitro ADME; settings: cryopreserved human hepatocytes, human hepatocytes, 0.3 µmol/L compound
Description: The intrinsic clearance was determined in cryopreserved dog and human hepatocytes essentially as described previously.4 The assay incubation contained 0.3 µmol/L compound and hepatocytes at a concentration of 10^6 cells/mL, with and without 30 minutes pre‐incubation of 1 mmol/L ABT. Intrinsic clearance measurement was initiated by the addition of compound and the incubation quenched at 0.6, 15, 30, 60 and 90 minutes for DPTQ, and at 0.6, 15, 30, 60, 120 and 240 minutes by addition of acetonitrile with 0.1% formic acid. Samples were centrifuged at 3500 g for 10 minutes and the supernatant was analyzed to quantify parent compound loss and the intrinsic clearance values (μL/min/10^6 cells) were calculated using following equation for incubations with and without ABT. CLint=-kdep×incubation volume/10^6cells
In which the depletion rate constant (k dep) is the slope determined using linear regression from the log transformed percentage remaining on the y‐axis vs time on the x‐axis (min^− ^1). The fraction of metabolism (fm) by P450 was determined by the measurement of the percentage of inhibition of Clint by ABT.

[3] = human, cited from earlier work; for EHC: enterohepatic circulation ref 11
UGT (glucuronidation) [4] = assay: Liver microsomal glucuronidation assay (human); format: in vitro ADME; settings: liver microsomes, pH 7.5, with 2% BSA, Clint divided by microsomal unbound fraction, read-out: Clint,u, Liver microsomes
Description: as §1, §2

UGT [5] = assay: Liver microsomal glucuronidation assay (human); format: in vitro ADME; settings: human liver microsomes, pH 7.5, with 2% BSA
Description: as §1, §2

[6] = tested on: human intestinal microsomes; set-up: method as in PMID 27862160; settings: human intestinal microsomes ref 6; cited from earlier work
UGT (glucuronidation) [7] = assay: Liver microsomal glucuronidation assay (dog); format: in vitro ADME; settings: liver microsomes, pH 7.5, dog, without BSA
Description: as §1, §2

UGT [8] = assay: Liver microsomal glucuronidation assay (dog); format: in vitro ADME; settings: dog liver microsomes, pH 7.5, dog, with 2% BSA
Description: as §1, §2

P-gp = target: T1, P-gp (Homo sapiens, UniProt P08183); assay: Bi‐directional transport across MDCKII cells expressing human P‐gp; format: in vitro ADME; settings: human, MDCK-MDR1, with 2.5 μmol/L LSN335984, uninhibited ratio divided by inhibited ratio; NER >3.0 = P‐gp substrate; read-out: Net efflux ratio
T1 construct: host or cells: MDCKII
T1 sequence (P08183 whole entry): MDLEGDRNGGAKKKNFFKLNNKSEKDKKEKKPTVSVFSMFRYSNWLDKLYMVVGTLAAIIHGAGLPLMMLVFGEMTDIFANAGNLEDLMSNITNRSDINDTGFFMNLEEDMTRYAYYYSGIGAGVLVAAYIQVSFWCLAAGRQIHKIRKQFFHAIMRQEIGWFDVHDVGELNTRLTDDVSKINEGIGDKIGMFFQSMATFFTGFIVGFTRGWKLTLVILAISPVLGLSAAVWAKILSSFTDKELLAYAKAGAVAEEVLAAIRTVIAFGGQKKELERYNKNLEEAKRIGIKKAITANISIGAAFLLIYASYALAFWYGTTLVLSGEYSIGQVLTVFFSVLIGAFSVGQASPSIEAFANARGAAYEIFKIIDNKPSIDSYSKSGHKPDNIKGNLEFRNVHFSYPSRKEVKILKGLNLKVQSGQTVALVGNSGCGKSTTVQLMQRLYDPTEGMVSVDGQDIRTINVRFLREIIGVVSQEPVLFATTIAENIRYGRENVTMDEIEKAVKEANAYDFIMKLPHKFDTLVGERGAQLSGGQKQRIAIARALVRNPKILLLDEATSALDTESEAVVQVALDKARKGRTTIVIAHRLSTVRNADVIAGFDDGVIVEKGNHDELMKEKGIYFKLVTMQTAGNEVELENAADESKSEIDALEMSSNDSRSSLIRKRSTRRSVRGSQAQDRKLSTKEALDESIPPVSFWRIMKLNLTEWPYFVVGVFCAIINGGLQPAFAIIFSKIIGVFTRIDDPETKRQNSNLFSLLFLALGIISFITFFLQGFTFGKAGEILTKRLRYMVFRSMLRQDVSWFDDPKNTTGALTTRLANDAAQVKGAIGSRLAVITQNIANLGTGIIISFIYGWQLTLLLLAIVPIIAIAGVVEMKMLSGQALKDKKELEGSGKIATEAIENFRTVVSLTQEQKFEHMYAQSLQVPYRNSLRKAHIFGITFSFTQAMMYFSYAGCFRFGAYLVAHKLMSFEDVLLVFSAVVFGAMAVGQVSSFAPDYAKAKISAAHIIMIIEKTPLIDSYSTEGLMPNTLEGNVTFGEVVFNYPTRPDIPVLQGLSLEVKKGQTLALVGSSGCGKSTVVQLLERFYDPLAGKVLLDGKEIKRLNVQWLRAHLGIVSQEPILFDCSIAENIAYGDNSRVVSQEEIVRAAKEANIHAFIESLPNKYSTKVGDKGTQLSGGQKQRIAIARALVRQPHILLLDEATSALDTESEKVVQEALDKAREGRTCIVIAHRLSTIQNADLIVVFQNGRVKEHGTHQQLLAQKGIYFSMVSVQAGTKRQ
Description: MDCKII cells stably expressing human wild‐type P‐gp were obtained from the Netherlands Cancer Institute Amsterdam, The Netherlands). MDCK cells were maintained and the assay was conducted essentially as described previously.12, 13 Transport was measured in both directions across uninhibited and inhibited cell monolayers using a substrate concentration of 5 μmol/L diluted from a 10 mmol/L DMSO stock solution final DMSO concentration of 0.05%) and a single 60‐min time interval.

[9] = tested on: human intestinal microsomes; assay: Intestinal glucuronidation in human intestinal microsomes; format: in vitro ADME; settings: data not shown
[10] = with 1 mmol/L ABT, 30 minutes pre-incubation, 1 mmol/L ABT pre‐incubation 30 minutes, read-out: Clint with ABT
[11] = 10^6 cells/mL, read-out: Clint without ABT
[12] = Clint divided by microsomal unbound fraction, read-out: Clint,u, Liver microsomes

Row | Structure (SMILES) | microsomal CLint at 2 µmol/L (UGT (glucuronidation) [1]; Clint divided by microsomal unbound fraction, read-out: Clint,u, Kidney microsomes) [µL/min/mg] | microsomal CLint at 2 µmol/L (UGT (glucuronidation) [1]; ND = Clint < 1.8, read-out: Clint, Kidney microsomes) [µL/min/mg] | hepatocyte CLint at 0.3 µmol/L [2, 10] [µL/min/1e6 cells] | hepatocyte CLint at 0.3 µmol/L [2, 11] [µL/min/1e6 cells] | EHC [3] | EHC ([3]; listed as canagliflozin) | Urinary excretion % of glucuronide ([3]; From human 14C study ref 5) | microsomal CLint at 2 µmol/L (UGT (glucuronidation) [4]) [µL/min/mg] | microsomal CLint at 2 µmol/L (UGT [5]) [µL/min/mg] | intestinal glucuronidation [6] | microsomal CLint at 2 µmol/L (UGT (glucuronidation) [7]; 2 µmol/L, 0.5 mg/mL, UDPGA, ND = Clint < 1.8, read-out: Clint, Liver microsomes) [µL/min/mg] | microsomal CLint at 2 µmol/L (UGT (glucuronidation) [7]; [12]) [µL/min/mg] | microsomal CLint at 2 µmol/L (UGT [8]; [12]) [µL/min/mg] | microsomal CLint at 2 µmol/L (UGT [8]; ND = Clint < 1.8, read-out: Clint, Liver microsomes) [µL/min/mg] | efflux ratio at 60 min, 5 μmol/L (P-gp) | intestinal glucuronidation [9]
1 | Cc1ccc([C@@H]2O[C@H](CO)[C@@H](O)[C@H](O)[C@H]2O)cc1Cc1ccc(-c2ccc(F)cc2)s1 [Canagliflozin] | 222 | 4 | 10.1 ± 1.4 | 12.7 ± 2 | No | negligible | Moderate ^d (moderate 30%‐70%) | 422 | 7.6 | negligible |  |  |  |  |  | 
2 | C[C@H]1c2cccc(CC(C)(C)O)c2C[C@H](CO)N1C(=O)Cc1c(Cl)cccc1Cl [DPTQ, 2‐(2,6‐dichlorophenyl)‐1‐((1S,3R)‐5‐(2‐hydroxy‐2‐methylpropyl)‐3‐(hydroxymethyl)‐1‐methyl‐3,4‐dihydroisoquinolin‐2(1H)‐yl)ethan‐1‐one] |  |  | 5.5 ± 2.2 | 5.8 ± 2 |  |  |  | 47.1 | 5.6 |  | 99 | 123 | 667 | 79.4 | 1.3 | negligible
